Experiments:
[1] = In vivo pharmacokinetics in blood plasma; parameters: species or system male CD-1 (ICD) mice; conditions: for T1/2 (min, PO) / Cmax / Tmax: 5 mg/kg, PO; for Bio-availability (%): [AUClast(PO)*Dose(IV)] / [AUClast(IV)*Dose(PO)], PO 5 mg/kg, IV 1 mg/kg; for Tmax: read-out: Tmax (min, PO) (converted)
Method: Evaluation of the in vivo pharmacokinetics of a subset of compounds was performed through analysis of compound concentration in the blood plasma of male CD-1 (ICD) mice (each weighing 20-30g) over a 24 hour period (at time points of 3, 10, 30, 60, 120, 240, 360 and1440 minutes) following a single oral (PO) and intravenous (IV, in tail vein) administration of a compound dose corresponding to 5 mg of compound/kg of mouse body weight (PO) and 1 mg of compound/kg of mouse body weight (IV). For IV dosing, each compound was formulated as a clear solution in DMSO/Solutol® HS 15/phosphate-buffered saline, pH 7.4 (PBS) (5/5/90, v/v/v). For PO dosing, compounds were formulated as a homogeneous suspension in DMSO/1% methylcellulose (5/95, v/v).
At the relevant time point, blood samples (300-400 µL) were collected from the mice under general inhalant anaesthesia by cardiac puncture and stored on ice in 0.6 mL polypropylene heparin-lithium-coated tubes. Within 1 hour of collection, each tube was centrifuged at 2500 G for 15 minutes at 4°C and harvested plasma stored at -20°C.
Compound concentration in plasma at each time point was determined following acetonitrile precipitation of each sample followed by HPLC-MS analysis performed in triplicates, i.e., based on the mean of the compound concentration at that time point in blood samples of three mice.
T1/2 is the terminal elimination half-life following IV and PO dosing (obtained from non-compartmental analysis (NCA) of the plasma data using WinNonLin). Tmax is the time following PO administration at which the maximum concentration is observed (obtained from non-compartmental analysis (NCA) of the plasma data using WinNonLin). Cmax corresponds to the concentration observed at Tmax following PO administration (obtained from non-compartmental analysis (NCA) of the plasma data using WinNonLin). Bioavailability was calculated as the ratio of: [AUClast(PO)*Dose(IV)] / [AUClast(IV)*Dose(PO)] where AUClast is the area under the curve (estimated by summing incremental areas of a series of trapezoids) of a plot of compound concentration versus time, up to the time of the last observation that is greater than the limit of quantification. Table 6: In vivo pharmacokinetics (min: minutes)

EphA3 = target: T1, EphA3 (Homo sapiens, UniProt P29320); test: Surface Plasmon Resonance (SPR) determination of Kd; type: binding; conditions: immobilized EphA3, 20 mM PBS pH 7.4, 150 mM NaCl
T1 construct: A clone of EphA3 kinase domain (residues: 606-947); made in house; host or cells: Escherichia coli BL21 (DE3)
T1 sequence (P29320 606-947): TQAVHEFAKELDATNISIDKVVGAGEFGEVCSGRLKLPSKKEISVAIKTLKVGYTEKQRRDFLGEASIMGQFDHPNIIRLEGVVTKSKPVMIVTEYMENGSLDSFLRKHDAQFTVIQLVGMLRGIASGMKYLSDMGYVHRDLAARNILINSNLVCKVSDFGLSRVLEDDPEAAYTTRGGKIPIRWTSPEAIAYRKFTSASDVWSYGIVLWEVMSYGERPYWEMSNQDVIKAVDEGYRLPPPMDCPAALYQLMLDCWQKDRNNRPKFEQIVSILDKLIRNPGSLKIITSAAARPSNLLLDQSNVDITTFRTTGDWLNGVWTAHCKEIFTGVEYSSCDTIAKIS
From the text: The EphA3-compound dissociation constant (Kd) in Table 2 were obtained following the experimental protocol of Jecklin M.C., et al (Journal of Molecular Recognition 22(4), 319-329), subject to the following modifications: • 1) EphA3 protein was purified as per the protocol given in the "Experimental Section" of Lafleur K., Dong J., Huang D., Caflisch A. and C. Nevado (Journal of Medicinal Chemistry, 2013; 56(1):84-96), under the header "Protein Expression and Purification". Protein concentration was determined using a NanoDrop 1000 from Thermo Scientific (Witec AG, Littau LU, Switzerland). • 2) Under "Instrumentation and reagents": 20 mM PBS pH 7.4, 150 mM NaCl was used as running buffer. • 3) Under "Enzyme immobilization": Following activation of flow cells, 300 µg/ml of EphA3 in immobilization buffer was injected over a 2 minute time period. Residual activated groups on the surface were then blocked by a 7 minute injection of 1 M ethanolamine, pH 8.5. […] Each suspension was then analyzed, commencing from the lowest and proceeding to the highest concentration, and then run in duplicate from the highest to the lowest concentration. During each binding cycle, the compound suspension was injected during a time period of 6 minutes at a flow rate of 5 µl/min and dissociation was monitored for 900 s. […]

[2] = male, CD-1 (ICD), mouse, mice plasma

SMILES | T1/2 (min, IV) ([1]; IV, 1 mg/kg, mice plasma) [h] | T1/2 (min, PO) ([1]; mice plasma) [h] | Bio-availability (%) [1] [%] | Cmax [1, 2] [ng/mL] | Tmax [1, 2] [h] | Kd (EphA3) [nM] | half-life ([1]; male, CD-1 (ICD), mouse, IV, 1 mg/kg, mice plasma, read-out: T1/2 (min, IV)) [h]
NC(=O)c1c(N)n(-c2cccc(C(=O)Nc3cccc(C(F)(F)F)c3)c2)c2nc3ccccc3nc12 [Compound 10c, 2-amino-1-(3-((3-(trifluoromethyl)phenyl)carbamoyl)phenyl)-1H-pyrrolo[2,3-b]quinoxaline-3-carboxamide] | 1.1 | 2.78 | 30 | 164 | 1 | 3.7 | 
NC(=O)c1c(N)n(-c2cccc(NC(=O)c3cccc(C(F)(F)F)c3)c2)c2nc3ccccc3nc12 [Compound 10d, 2-amino-1-(3-(3-(trifluoromethyl)benzamido)phenyl)-1H-pyrrolo[2,3-b]quinoxaline-3-carboxamide] |  | 4.95 | 10 | 45 | 2 | 40.1 | 1.18

— EP2924039A1, “2-Amino-1-phenyl-pyrrolo[3,2-b]quinoxaline-3-carboxamide derivates” (Universität Zürich, priority 2014, dated 2015)
